Read-outs that look alike come from different tables or passages of the source.
Legend:
Assay type in all cases: cell-based
[1] = target: T1, human S1P3 receptor (S1PR3) (Homo sapiens, UniProt Q99500); assay: Intracellular Ca2+ release (method 1), agonist potency, S1P3
T1 construct: host or cells: CHO-K1
Procedure: (§1) Agonistic activity and efficacy of compounds was assessed in recombinant cells using method 1 described below.
(§2) Agonist potency and efficacy were assessed by measurement of intracellular Ca^2+ release. Recombinant CHO-K1 cells (Euroscreen, Brussels, Belgium) expressing human S1PR5, S1PR1, S1PR3 or S1PR4 receptors, aequorin, and GTP binding protein Gq/i5 were cultured using a medium containing nutrient mixture F-12 Ham (Sigma-Aldrich) with 10% FBS, and 100 μg/mL gentamicin and equilibrated at 5% CO2.
(§3) 15,000 cells in 20 μL medium were seeded into Biocoat poly-D-Lysine coated 384 well plates (Becton Dickinson #35-6663) and grown to 95% confluency after 24 h.
(§4) Culture medium was replaced by an assay buffer consisting of HBBS with Ca^2+ and Mg^2+ (Invitrogen #14025-050), 20 mmol/L Hepes (Sigma-Aldrich #H-3375), 2.5 mmol/L probenecid (Sigma-Aldrich #P-8761, and 0.1% BSA (Sigma-Aldrich #A-7030) pH 7.4. The Calcium 5 no-wash FLIPR assay kit (Molecular Devices #5000625) was performed as described in the kit instructions. Cells were incubated with Calcium 5 dye for 1 h at 37° C., 5% CO2 in the dark. After 45 min adaptation to RT assessment of agonist stimulation of intracellular Ca^2+ release was performed by addition of test compounds at various concentrations obtained by serial dilution. Phospho-fingolimod was used as positive control and reference agonist (intrinsic activity 100%).
(§5) Agonism of test compounds at the human S1Px receptors were characterized by the EC50 values (potencies) deduced from a nonlinear 4 parametric logistic curve fit to the measured fluorescence data after normalization to the lower and upper plateaus of the fitted reference agonist's (phospho-fingolimod)effect curve and by their efficacy (Emax) values represented by their maximum achievable effects in % of the reference agonist's efficacy, which is defined as an Emax of 100%.

[2] = target: T2, human S1P4 receptor (S1PR4) (Homo sapiens, UniProt O95977); assay: Intracellular Ca2+ release (method 1), agonist potency, S1P4; conditions: CHO-K1 cells expressing human S1PR4
T2 construct: host or cells: CHO-K1
T2 sequence (O95977 1-384): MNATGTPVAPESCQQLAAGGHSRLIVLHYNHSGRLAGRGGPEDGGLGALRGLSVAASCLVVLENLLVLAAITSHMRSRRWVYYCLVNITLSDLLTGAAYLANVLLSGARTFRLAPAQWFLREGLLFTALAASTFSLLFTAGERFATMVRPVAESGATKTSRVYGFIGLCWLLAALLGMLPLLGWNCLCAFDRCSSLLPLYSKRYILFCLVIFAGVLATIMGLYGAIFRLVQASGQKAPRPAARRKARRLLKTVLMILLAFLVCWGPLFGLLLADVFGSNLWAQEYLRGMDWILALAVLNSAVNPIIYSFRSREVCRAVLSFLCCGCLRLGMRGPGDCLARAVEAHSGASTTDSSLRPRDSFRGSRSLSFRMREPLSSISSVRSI
Procedure: as §1, §2, §3, §4, §5

[3] = target: T3, human S1P5 receptor (S1PR5) (Homo sapiens, UniProt Q9H228); assay: Intracellular Ca2+ release (method 1), agonist potency and efficacy, S1P5; conditions: for Emax: read-out: hS1P5 EMax
T3 construct: host or cells: CHO-K1
T3 sequence (Q9H228 whole entry): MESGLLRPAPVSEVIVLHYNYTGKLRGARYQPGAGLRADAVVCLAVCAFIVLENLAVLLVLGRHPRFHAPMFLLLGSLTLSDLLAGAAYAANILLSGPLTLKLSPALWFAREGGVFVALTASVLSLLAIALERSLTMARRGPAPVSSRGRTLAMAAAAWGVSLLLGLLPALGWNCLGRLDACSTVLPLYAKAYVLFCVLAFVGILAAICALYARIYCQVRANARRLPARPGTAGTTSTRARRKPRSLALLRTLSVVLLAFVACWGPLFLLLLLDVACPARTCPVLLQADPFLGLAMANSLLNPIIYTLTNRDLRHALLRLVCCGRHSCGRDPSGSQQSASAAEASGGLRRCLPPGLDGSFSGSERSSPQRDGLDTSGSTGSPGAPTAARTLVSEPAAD
Procedure: as §1, §2, §3, §4, §5

[4] = target: T4, human S1P1 receptor (S1PR1) (Homo sapiens, UniProt P21453); assay: Intracellular Ca2+ release (method 1), agonist potency, S1P1; conditions: CHO-K1 cells expressing human S1PR1
T4 construct: host or cells: CHO-K1
T4 sequence (P21453 whole entry): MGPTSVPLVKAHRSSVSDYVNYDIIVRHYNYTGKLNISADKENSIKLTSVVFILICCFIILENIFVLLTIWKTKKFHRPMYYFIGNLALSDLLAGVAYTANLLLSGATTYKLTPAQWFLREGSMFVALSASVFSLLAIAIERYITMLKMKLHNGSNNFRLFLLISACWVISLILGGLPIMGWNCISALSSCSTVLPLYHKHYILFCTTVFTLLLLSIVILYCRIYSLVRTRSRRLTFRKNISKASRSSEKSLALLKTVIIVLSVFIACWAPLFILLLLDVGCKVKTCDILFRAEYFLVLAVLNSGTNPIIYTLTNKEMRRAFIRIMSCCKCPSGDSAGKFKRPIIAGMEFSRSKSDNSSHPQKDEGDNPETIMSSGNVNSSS
Procedure: as §1, §2, §3, §4, §5

[5] = CHO-K1 cells expressing human S1PR3
[6] = maximum effect in % of reference agonist phospho-fingolimod (100%)
[7] = recombinant CHO-K1 cells expressing human S1PR5, aequorin, Gq/i5, Ca2+ release, read-out: S1P5 EC50 range
[8] = text value for reference compounds lacking the spiro-linked group, read-out: S1P5 EC50
[9] = value for reference compounds, % of phospho-fingolimod efficacy

T1 sequence (Q99500 whole entry): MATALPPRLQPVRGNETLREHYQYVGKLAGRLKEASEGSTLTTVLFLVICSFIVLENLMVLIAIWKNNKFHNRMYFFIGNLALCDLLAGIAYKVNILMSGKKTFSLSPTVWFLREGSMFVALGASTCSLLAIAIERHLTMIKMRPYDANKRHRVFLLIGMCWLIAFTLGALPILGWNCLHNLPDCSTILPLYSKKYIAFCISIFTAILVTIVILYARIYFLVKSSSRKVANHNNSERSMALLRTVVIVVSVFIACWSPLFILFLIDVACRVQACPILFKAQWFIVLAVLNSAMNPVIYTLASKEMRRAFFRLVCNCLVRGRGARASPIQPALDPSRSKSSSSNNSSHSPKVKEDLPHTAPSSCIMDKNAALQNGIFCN

EC50 [1, 5] [nM] | EC50 ([2]; cells given as bound) [nM] | Emax [3, 6] [%] | EC50 [3, 7] [nM] | EC50 [4] [nM] | EC50 ([4]; cells given as bound) [nM] | EC50 [2] [nM] | EC50 ([1]; value for reference compounds) [nM] | EC50 [3, 8] [nM] | Emax [3, 9] [%] | SMILES
> 1000 | > 1000 | 50 to 100 | < 10 | 100 to 1000 | – | – | – | – | – | CC(C)c1ccc(C#Cc2ccc3c(c2)C2(CC2)CN(CCCC(=O)O)C3)cc1 [Compound 1, 2′-(3-carboxypropyl)-6′-((4-isopropylphenyl)ethynyl)-2′,3′-dihydro-1′H-spiro[cyclopropane-1,4′-isoquinolin]-2′-ium 2,2,2-trifluoroacetate]
> 1000 | > 1000 | 50 to 100 | < 10 | – | > 1000 | – | – | – | – | CC(C)Oc1ccc(C#Cc2ccc3c(c2)C2(CC2)CN(CCCC(=O)O)C3)cn1 [Compound 2, 4-(6′-((6-isopropoxypyridin-3-yl)ethynyl)-1′H-spiro[cyclopropane-1,4′-isoquinolin]-2′(3′H)-yl)butanoic acid]
> 1000 | > 1000 | 50 to 100 | < 10 | 100 to 1000 | – | – | – | – | – | CCOc1ccc(C#Cc2ccc3c(c2)C2(CC2)CN(CCCC(=O)O)C3)cc1 [Compound 3, 2′-(3-carboxypropyl)-6′-((4-ethoxyphenyl)ethynyl)-2′,3′-dihydro-1′H-spiro[cyclopropane-1,4′-isoquinolin]-2′-ium 2,2,2-trifluoroacetate]
> 1000 | – | > 100 | < 10 | – | > 1000 | 10 to 100 | – | – | – | O=C(O)CCN1Cc2ccc(C#Cc3cccc(F)c3F)cc2C2(CC2)C1 [Compound 10, 3-(6′-((2,3-Difluorophenyl)ethynyl)-1′H-spiro[cyclopropane-1,4′-isoquinolin]-2′(3′H)-yl)propanoic acid]
> 1000 | – | 50 to 100 | < 10 | – | > 1000 | 10 to 100 | – | – | – | O=C(O)CCN1Cc2ccc(C#Cc3c(Cl)cccc3Cl)cc2C2(CC2)C1 [Compound 11, 3-(6′-((2,6-dichlorophenyl)ethynyl)-1′H-spiro[cyclopropane-1,4′-isoquinolin]-2′(3′H)-yl)propanoic acid]
> 1000 | – | 50 to 100 | < 10 | – | > 1000 | 100 to 1000 | – | – | – | CCc1cccc(Cl)c1COc1ccc2c(c1)C1(CC1)CN(CC(=O)O)C2 [Compound 13, 2-(6′-((2-Chloro-6-ethylbenzyl)oxy)-1′H-spiro[cyclopropane-1,4′-isoquinolin]-2′(3′H)-yl)acetic acid]
– | > 1000 | > 100 | < 10 | – | > 1000 | – | – | – | – | CC(CC(=O)O)CN1Cc2ccc(C#Cc3ccc(OC(C)C)cc3)cc2C2(CC2)C1 (stereo not drawn) [Compound 62, 4-(6′-((4-isopropoxyphenyl)ethynyl)-1′H-spiro[cyclopropane-1,4′-isoquinolin]-2′(3′H)-yl)-3-methylbutanoic acid]
– | > 1000 | 50 to 100 | 10 to 100 | – | > 1000 | – | – | – | – | CCOc1ccc(C#Cc2ccc3c(c2)C2(CC2)CN(CC(C)CC(=O)O)C3)cc1 (stereo not drawn) [Compound 63, 4-(6′-((4-ethoxyphenyl)ethynyl)-1′H-spiro[cyclopropane-1,4′-isoquinolin]-2′(3′H)-yl)-3-methylbutanoic acid]
– | > 1000 | > 100 | 10 to 100 | – | > 1000 | – | – | – | – | CC(CC(=O)O)CN1Cc2ccc(C#Cc3ccc(OC4CCCC4)cc3)cc2C2(CC2)C1 (stereo not drawn) [Compound 64, 4-(6′-((4-(cyclopentyloxy)phenyl)ethynyl)-1′H-spiro[cyclopropane-1,4′-isoquinolin]-2′(3′H)-yl)-3-methylbutanoic acid]
– | > 1000 | > 100 | 100 to 1000 | – | > 1000 | – | – | – | – | CC(CC(=O)O)CN1Cc2ccc(C#Cc3ccc(OC(F)(F)F)cc3)cc2C2(CC2)C1 (stereo not drawn) [Compound 65, 3-methyl-4-(6′-((4-(trifluoromethoxy)phenyl)ethynyl)-1′H-spiro[cyclopropane-1,4′-isoquinolin]-2′(3′H)-yl)butanoic acid]
– | > 1000 | 50 to 100 | 100 to 1000 | – | > 1000 | – | – | – | – | CC(CC(=O)O)CN1Cc2ccc(C#Cc3cccc(F)c3F)cc2C2(CC2)C1 (stereo not drawn) [Compound 66, 4-(6′-((2,3-difluorophenyl)ethynyl)-1′H-spiro[cyclopropane-1,4′-isoquinolin]-2′(3′H)-yl)-3-methylbutanoic acid]
– | > 1000 | 50 to 100 | 10 to 100 | – | > 1000 | – | – | – | – | CCOc1cc(C)c(C#Cc2ccc3c(c2)C2(CC2)CN(CC(C)CC(=O)O)C3)cn1 (stereo not drawn) [Compound 67, 4-(6′-((6-ethoxy-4-methylpyridin-3-yl)ethynyl)-1′H-spiro[cyclopropane-1,4′-isoquinolin]-2′(3′H)-yl)-3-methylbutanoic acid]
– | > 1000 | 50 to 100 | 10 to 100 | – | > 1000 | – | – | – | – | CC(CC(=O)O)CN1Cc2ccc(C#Cc3ccsc3)cc2C2(CC2)C1 (stereo not drawn) [Compound 68, 3-methyl-4-(6′-(thiophen-3-ylethynyl)-1′H-spiro[cyclopropane-1,4′-isoquinolin]-2′(3′H)-yl)butanoic acid]
– | > 1000 | > 100 | 10 to 100 | – | > 1000 | – | – | – | – | CCOc1ccc(C#Cc2ccc3c(c2)C2(CC2)CN(CC(C)CC(=O)O)C3)cc1F (stereo not drawn) [Compound 69, 4-(6′-((4-ethoxy-3-fluorophenyl)ethynyl)-1′H-spiro[cyclopropane-1,4′-isoquinolin]-2′(3′H)-yl)-3-methylbutanoic acid]
– | > 1000 | 50 to 100 | 10 to 100 | – | > 1000 | – | – | – | – | CC(C)Oc1ccc(C#Cc2ccc3c(c2)C2(CC2)CN(C2CC(C(=O)O)C2)C3)nc1 (stereo not drawn) [Compound 70, 3-(6′-((5-isopropoxypyridin-2-yl)ethynyl)-1′H-spiro[cyclopropane-1,4′-isoquinolin]-2′(3′H)-yl)cyclobutanecarboxylic acid]
– | > 1000 | 50 to 100 | 10 to 100 | – | > 1000 | – | – | – | – | O=C(O)C1CC(N2Cc3ccc(C#Cc4ccc(OC(F)(F)F)c(F)c4)cc3C3(CC3)C2)C1 (stereo not drawn) [Compound 71, 3-(6′-((3-fluoro-4-(trifluoromethoxy)phenyl)ethynyl)-1′H-spiro[cyclopropane-1,4′-isoquinolin]-2′(3′H)-yl)cyclobutanecarboxylic acid]
– | > 1000 | 50 to 100 | 10 to 100 | – | > 1000 | – | – | – | – | CCOc1ccc(C#Cc2ccc3c(c2)C2(CC2)CN(C2CC(C(=O)O)C2)C3)cc1F (stereo not drawn) [Compound 72, 3-(6′-((4-ethoxy-3-fluorophenyl)ethynyl)-1′H-spiro[cyclopropane-1,4′-isoquinolin]-2′(3′H)-yl)cyclobutanecarboxylic acid]
– | > 1000 | 50 to 100 | 1000 to 10000 | – | > 1000 | – | – | – | – | CCOc1ccc(C#Cc2ccc3c(c2)C2(CC2)CN(C2CC(C(=O)O)C2)C3)nc1 (stereo not drawn) [Compound 73, 3-(6′-((5-ethoxypyridin-2-yl)ethynyl)-1′H-spiro[cyclopropane-1,4′-isoquinolin]-2′(3′H)-yl)cyclobutanecarboxylic acid]
– | – | – | – | – | – | – | > 1000 | 29 | 60 | O=C(O)CCN1CCc2cc(C#Cc3cccc(F)c3F)ccc2C1 [Reference compound 1, 3-(6-((2,3-difluorophenyl)ethynyl)-3,4-dihydroisoquinolin-2(1H)-yl)propanoic acid, reference compound]
– | – | – | – | – | – | – | > 1000 | 19.2 | 41 | O=C(O)CCN1CCc2cc(C#Cc3c(Cl)cccc3Cl)ccc2C1 [Reference compound 2, 3-(6-((2,6-dichlorophenyl)ethynyl)-3,4-dihydroisoquinolin-2 (1H)-yl)propanoic acid, reference compound]

— patent US20210147381A1, “1,2,3,4-SUBSTITUTED QUINOLINE COMPOUNDS AS SIP MODULATORS” (AbbVie Deutschland GmbH & Co. KG, priority 2017, published 2021)
